pIC50: −log10 of the molar value.
Tests used:
[1] = biological target: T1, Class 1 histone deacetylase (Homo sapiens, UniProt Q13547+O15379+Q92769+Q9BY41); assay: Inhibition of class 1 HDAC in human Cal27CisR cells assessed as potentiation of cisplatin-induced cytotoxicity by measuring combination index at 1 uM in presence of […] cisplatin by MTT assay based Chou-Talalay analysis; type: cell-based
[2] = biological target: T1, Class 1 histone deacetylase
[3] = biological target: T1, Class 1 histone deacetylase; conditions: CAL-27
Description: Inhibition of class 1 HDAC in human CAL27 cells assessed as potentiation of cisplatin-induced cytotoxicity by measuring combination index at 0.5 uM in presence of 10 uM cisplatin by MTT assay based Chou-Talalay analysis

[4] = biological target: T1, Class 1 histone deacetylase; conditions: CAL-27; remark: listed apart in the source
Description: Inhibition of class 1 HDAC in human CAL27 cells assessed as potentiation of cisplatin-induced cytotoxicity by measuring combination index at 0.5 uM in presence of 0.32 uM cisplatin by MTT assay based Chou-Talalay analysis

[5] = biological target: T1, Class 1 histone deacetylase; remark: listed apart in the source
Description: Inhibition of class 1 HDAC in human Cal27CisR cells assessed as potentiation of cisplatin-induced cytotoxicity by measuring combination index at 0.5 uM in presence of 100 uM cisplatin by MTT assay based Chou-Talalay analysis

[6] = biological target: T1, Class 1 histone deacetylase; assay: Inhibition of class 1 HDAC in human CAL27 cells assessed as potentiation of cisplatin-induced cytotoxicity by measuring combination index at […] in presence of […] cisplatin by MTT assay based Chou-Talalay analysis; type: cell-based; conditions: CAL-27
[7] = biological target: T1, Class 1 histone deacetylase; remark: listed apart in the source
Description: Inhibition of class 1 HDAC in human Cal27CisR cells assessed as potentiation of cisplatin-induced cytotoxicity by measuring combination index at 0.5 uM in presence of 3.2 uM cisplatin by MTT assay based Chou-Talalay analysis

[8] = biological target: T1, Class 1 histone deacetylase; assay: Inhibition of class 1 HDAC in human CAL27 cells assessed as potentiation of cisplatin-induced cytotoxicity by measuring combination index at […] in presence of 1 uM cisplatin by MTT assay based Chou-Talalay analysis; type: cell-based; conditions: CAL-27
[9] = biological target: T1, Class 1 histone deacetylase; conditions: CAL-27; remark: listed apart in the source
Description: Inhibition of class 1 HDAC in human CAL27 cells assessed as potentiation of cisplatin-induced cytotoxicity by measuring combination index at 0.5 uM in presence of 1 uM cisplatin by MTT assay based Chou-Talalay analysis

[10] = biological target: Histone deacetylase 3/Nuclear receptor corepressor 2 (HDAC3/NCoR2) (Homo sapiens) (UniProt O15379+Q9Y618); assay: Inhibition of human recombinant full length C-terminal His-tagged HDAC3 (1 to 428 residues)/N-terminal GST-tagged NCOR2 (395 to 489 residues) expressed in baculovirus infected Sf9 insect cells at 10 uM using Boc-Lys(epsilon-acetyl)-AMC as substrate incubated for 90 mins by fluorescence assay relative to control
[11] = biological target: T1, Class 1 histone deacetylase; assay: Inhibition of class 1 HDAC in human CAL27 cells assessed as potentiation of cisplatin-induced cytotoxicity by measuring combination index at 1 uM in presence of 0.10 uM cisplatin by MTT assay based Chou-Talalay analysis; type: cell-based; conditions: CAL-27
[12] = biological target: T1, Class 1 histone deacetylase; assay: (§1) Inhibition of class 1 HDAC in human CAL27 cells assessed as potentiation of cisplatin-induced cytotoxicity by measuring combination index at 1 uM in presence of […] cisplatin by MTT assay based Chou-Talalay analysis; type: cell-based; conditions: CAL-27
[13] = biological target: T1, Class 1 histone deacetylase; assay: Inhibition of class 1 HDAC in human Cal27CisR cells assessed as potentiation of cisplatin-induced cytotoxicity by measuring combination index at […] in presence of 32 uM cisplatin by MTT assay based Chou-Talalay analysis; type: cell-based
[14] = biological target: T1, Class 1 histone deacetylase; assay: Inhibition of class 1 HDAC in human CAL27 cells assessed as potentiation of cisplatin-induced cytotoxicity by measuring cisplatin IC50 at […] preincubated for 48 hrs followed by cisplatin addition and measured after 72 hrs by MTT assay (reference value: 9.79 uM); type: cell-based; conditions: cal-27
[15] = biological target: T1, Class 1 histone deacetylase; assay: Inhibition of class 1 HDAC in human CAL27 cells assessed as potentiation of cisplatin-induced cytotoxicity by measuring combination index at 1 uM in presence of 10 uM cisplatin by MTT assay based Chou-Talalay analysis; type: cell-based; conditions: CAL-27
[16] = biological target: T1, Class 1 histone deacetylase; assay: Inhibition of class 1 HDAC in human Cal27CisR cells assessed as potentiation of cisplatin-induced cytotoxicity by measuring combination index at […] in presence of 1 uM cisplatin by MTT assay based Chou-Talalay analysis; type: cell-based
[17] = biological target: T1, Class 1 histone deacetylase; assay: Inhibition of class 1 HDAC in human Cal27CisR cells assessed as potentiation of cisplatin-induced cytotoxicity by measuring combination index at 1 uM in presence of 100 uM cisplatin by MTT assay based Chou-Talalay analysis; type: cell-based
[18] = biological target: T1, Class 1 histone deacetylase; assay: Inhibition of class 1 HDAC in human CAL27 cells assessed as potentiation of cisplatin-induced cytotoxicity by measuring combination index at […] in presence of 10 uM cisplatin by MTT assay based Chou-Talalay analysis; type: cell-based; conditions: CAL-27
[19] = biological target: T1, Class 1 histone deacetylase; assay: Inhibition of class 1 HDAC in human Cal27CisR cells assessed as potentiation of cisplatin-induced cytotoxicity by measuring combination index at 1 uM in presence of 1 uM cisplatin by MTT assay based Chou-Talalay analysis; type: cell-based
[20] = biological target: T1, Class 1 histone deacetylase; assay: Inhibition of class 1 HDAC in human Cal27CisR cells assessed as potentiation of cisplatin-induced cytotoxicity by measuring combination index at 1 uM in presence of 32 uM cisplatin by MTT assay based Chou-Talalay analysis; type: cell-based
[21] = biological target: T1, Class 1 histone deacetylase; remark: listed apart in the source
Description: Inhibition of class 1 HDAC in human Cal27CisR cells assessed as potentiation of cisplatin-induced cytotoxicity by measuring combination index at 0.5 uM in presence of 1 uM cisplatin by MTT assay based Chou-Talalay analysis

[22] = biological target: T1, Class 1 histone deacetylase; assay: as §1; type: cell-based; conditions: CAL-27; remark: listed apart in the source
[23] = biological target: T1, Class 1 histone deacetylase; assay: Inhibition of class 1 HDAC in human Cal27CisR cells assessed as potentiation of cisplatin-induced cytotoxicity by measuring combination index at […] in presence of 10 uM cisplatin by MTT assay based Chou-Talalay analysis; type: cell-based
[24] = biological target: T1, Class 1 histone deacetylase; assay: Inhibition of class 1 HDAC in human Cal27CisR cells assessed as potentiation of cisplatin-induced cytotoxicity by measuring combination index at […] in presence of […] cisplatin by MTT assay based Chou-Talalay analysis; type: cell-based
[25] = biological target: T1, Class 1 histone deacetylase; assay: Inhibition of class 1 HDAC in human CAL27 cells assessed as potentiation of cisplatin-induced cytotoxicity by measuring combination index at […] in presence of 0.1 uM cisplatin by MTT assay based Chou-Talalay analysis; type: cell-based; conditions: CAL-27
Histone deacetylase 2 = Histone deacetylase 2 (Homo sapiens, UniProt Q92769); assay: Inhibition of recombinant human full length C-terminal FLAG-tagged HDAC2 expressed in baculovirus infected Sf9 insect cells using Boc-Lys(epsilon-acetyl)-AMC as substrate incubated for 90 mins by fluorescence assay; type: cell-based
Sequence of Histone deacetylase 2 (Q92769 whole entry): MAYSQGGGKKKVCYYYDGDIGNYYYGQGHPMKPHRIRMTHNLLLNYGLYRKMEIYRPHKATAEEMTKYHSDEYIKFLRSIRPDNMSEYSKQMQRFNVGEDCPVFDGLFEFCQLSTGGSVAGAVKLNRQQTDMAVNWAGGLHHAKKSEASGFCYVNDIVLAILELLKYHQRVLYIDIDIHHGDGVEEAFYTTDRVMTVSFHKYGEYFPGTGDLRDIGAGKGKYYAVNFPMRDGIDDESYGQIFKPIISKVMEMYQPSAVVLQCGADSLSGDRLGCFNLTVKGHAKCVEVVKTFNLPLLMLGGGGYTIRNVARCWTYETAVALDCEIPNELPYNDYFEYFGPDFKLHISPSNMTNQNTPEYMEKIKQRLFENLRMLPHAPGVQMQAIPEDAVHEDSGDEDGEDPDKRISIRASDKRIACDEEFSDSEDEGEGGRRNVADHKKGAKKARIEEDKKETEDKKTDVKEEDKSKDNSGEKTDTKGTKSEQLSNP

[26] = biological target: T1, Class 1 histone deacetylase; assay: Inhibition of class 1 HDAC in human Cal27CisR cells assessed as potentiation of cisplatin-induced cytotoxicity by measuring cisplatin IC50 at 5 uM preincubated for 48 hrs followed by cisplatin addition and measured after 72 hrs by MTT assay (reference value: 63.2 uM); type: cell-based
A2780 = assay: Cytotoxicity against human A2780 cells assessed as reduction in cell survival measured after 72 hrs by MTT assay; type: functional, cell-based; conditions: A2780, 72 h
[27] = biological target: T1, Class 1 histone deacetylase; remark: listed apart in the source
Description: Inhibition of class 1 HDAC in human Cal27CisR cells assessed as potentiation of cisplatin-induced cytotoxicity by measuring combination index at 0.10 uM in presence of 1 uM cisplatin by MTT assay based Chou-Talalay analysis

[28] = biological target: T1, Class 1 histone deacetylase; remark: listed apart in the source
Description: Inhibition of class 1 HDAC in human Cal27CisR cells assessed as potentiation of cisplatin-induced cytotoxicity by measuring combination index at 0.25 uM in presence of 1 uM cisplatin by MTT assay based Chou-Talalay analysis

T1 sequence (O15379 whole entry, looked up): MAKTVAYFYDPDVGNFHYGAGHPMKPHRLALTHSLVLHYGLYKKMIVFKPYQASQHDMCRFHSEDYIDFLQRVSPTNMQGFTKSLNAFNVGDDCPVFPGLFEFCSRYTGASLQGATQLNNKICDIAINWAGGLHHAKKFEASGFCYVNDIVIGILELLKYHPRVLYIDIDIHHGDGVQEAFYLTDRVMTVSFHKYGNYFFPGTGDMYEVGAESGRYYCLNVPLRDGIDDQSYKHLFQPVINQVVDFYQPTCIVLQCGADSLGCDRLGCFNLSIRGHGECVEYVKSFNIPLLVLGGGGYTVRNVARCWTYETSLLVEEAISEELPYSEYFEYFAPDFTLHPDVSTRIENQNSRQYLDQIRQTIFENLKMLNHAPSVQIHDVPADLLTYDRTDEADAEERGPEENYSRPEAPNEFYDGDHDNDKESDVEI
T1 sequence (Q13547 whole entry, looked up): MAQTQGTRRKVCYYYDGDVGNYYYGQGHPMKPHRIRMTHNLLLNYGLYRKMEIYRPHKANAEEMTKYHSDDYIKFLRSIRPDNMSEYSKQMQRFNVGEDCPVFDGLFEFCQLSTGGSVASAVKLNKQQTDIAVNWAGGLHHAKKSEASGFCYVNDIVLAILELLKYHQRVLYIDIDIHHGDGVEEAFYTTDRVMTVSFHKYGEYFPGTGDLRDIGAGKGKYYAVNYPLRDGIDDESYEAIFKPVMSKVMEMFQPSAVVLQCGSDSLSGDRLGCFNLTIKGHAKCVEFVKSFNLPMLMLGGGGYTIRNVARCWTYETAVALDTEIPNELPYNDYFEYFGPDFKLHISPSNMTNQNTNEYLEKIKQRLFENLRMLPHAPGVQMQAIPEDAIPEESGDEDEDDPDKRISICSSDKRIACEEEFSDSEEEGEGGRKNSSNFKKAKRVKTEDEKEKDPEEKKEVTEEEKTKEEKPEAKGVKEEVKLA
T1 sequence (Q92769 whole entry, looked up): as the sequence (Q92769 whole entry) above
T1 sequence (Q9BY41 whole entry, looked up): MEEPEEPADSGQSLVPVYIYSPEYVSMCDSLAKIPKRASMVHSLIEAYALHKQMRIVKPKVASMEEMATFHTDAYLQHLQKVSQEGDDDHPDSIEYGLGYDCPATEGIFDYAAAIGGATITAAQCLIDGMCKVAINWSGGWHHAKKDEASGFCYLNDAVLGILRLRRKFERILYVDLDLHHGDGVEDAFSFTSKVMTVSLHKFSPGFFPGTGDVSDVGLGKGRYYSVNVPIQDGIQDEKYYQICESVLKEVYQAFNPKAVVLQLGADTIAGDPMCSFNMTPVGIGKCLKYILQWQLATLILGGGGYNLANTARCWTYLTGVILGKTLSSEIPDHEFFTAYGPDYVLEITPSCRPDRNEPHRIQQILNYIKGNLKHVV

Compound	CI [1]	CI [2]	CI [3]	CI [4]	CI [5]	CI [6]	CI [7]	CI [8]	CI [9]	inhibition [10] [%]	CI [11]	CI [12]	CI [13]	CI [15]	CI [16]	CI [17]	CI [18]	CI [19]	CI [20]	CI [21]	other results
Cc1cc(C)cc(C(=O)N(CC(=O)NCc2ccccc2)Cc2ccc(C(=O)Nc3cc(-c4ccccc4)ccc3N)cc2)c1	0.81	< 0.2	0.18	0.7	0.1	0.14	< 0.2	0.23	0.59	< 15	0.42	0.2	0.18	0.16	< 0.2	0.08	0.08	< 0.2	0.27	0.77	IC50 [14]: 1.86 µM; CI [22]: 0.52; CI [23]: 0.31; CI [24]: 0.89; CI [25]: 0.39
Cc1cc(C)cc(C(=O)N(CCCCCC(=O)Nc2cc(-c3ccccc3)ccc2N)CC(=O)NCc2ccccc2)c1	< 0.2					0.25		< 0.2		20	< 0.2	< 0.2	0.74	0.53	< 0.2	0.06	0.12	< 0.2	< 0.2		pIC50 (Histone deacetylase 2): 5.74; IC50 [26]: 15.7 µM; CI [22]: < 0.2; pIC50 (A2780): 4.77; CI [23]: < 0.2; CI [24]: < 0.2; CI [25]: < 0.2
CN(C)c1ccc(C(=O)N(CC(=O)NCc2ccccc2)Cc2ccc(C(=O)Nc3ccccc3N)cc2)cc1		0.03	0.07	0.32	0.07		0.25		0.16											0.33	CI [27]: < 0.2; pIC50 (Histone deacetylase 2): 6.55; CI [28]: 0.76; pIC50 (A2780): 5.62

— ChEMBL document CHEMBL4334526, “Synthesis of Peptoid-Based Class I-Selective Histone Deacetylase Inhibitors with Chemosensitizing Properties” (J Med Chem, 2019)
